Assay results as given in US10590106B2, “Certain chemical entities, compositions, and methods” (NeuPharma, Inc., priority 2012, dated 2020).

Columns and labels:
BRAF = BRAF (Homo sapiens (Human), UniProt P15056); assay: Inhibitory activity against kinase BRAF, Z'-LYTE method (Invitrogen); assay type: biochemical; conditions: 1 μM compound
Procedure: (§1) Inhibitory activities Inhibitory activities of compounds against BRAF, and BRAF V600E were measured by Invitrogen using Z′-LYTE® Method as briefly described in the following. 4× Test compounds are dissolved in 1% DMSO. […] ATP solutions are diluted to a 4×ATP working concentration in Kinase Buffer (50 mM HEPES pH 7.5, 0.01% BRIJ-35, 10 mM MgCl2, 1 mM EGTA). Reaction started by 30-second shaking of mixture consisting of 2.5 μL 4× test compound, […] and 2.5 μL 4×ATP Solution on Bar-coded Corning, low volume NBS, black 384-well plate (Corning Cat. #3676). Then the mixture was incubated for 60-minute at room temperature for the kinase reaction, followed by addition of 5 μL of a 1:1024 dilution of development reagent A and 30-second plate shake. The mixture was then incubated for another 60-minute at room temperature for development reaction. Fluorescence was read by plate reader. IC50 was calculated by plotting the concentration of compound vs the percentage of inhibition in treated wells using GraphPad Prism 5.
(§2) Table 2 and 3 show % inhibition at 1 μM of several compounds of the invention against BRAF and BRAF V600E, respectively, using Z′-LYTE® method.

BRAF V600E = BRAF V600E (Homo sapiens (Human), UniProt P15056, V600E); assay: Inhibitory activity against kinase BRAF V600E, Z'-LYTE method (Invitrogen); assay type: biochemical; conditions: 1 μM compound; read-out: Inhibition (% inhibition at 1 μM) against BRAF V600E
Chain of BRAF V600E (P15056 whole entry V600E): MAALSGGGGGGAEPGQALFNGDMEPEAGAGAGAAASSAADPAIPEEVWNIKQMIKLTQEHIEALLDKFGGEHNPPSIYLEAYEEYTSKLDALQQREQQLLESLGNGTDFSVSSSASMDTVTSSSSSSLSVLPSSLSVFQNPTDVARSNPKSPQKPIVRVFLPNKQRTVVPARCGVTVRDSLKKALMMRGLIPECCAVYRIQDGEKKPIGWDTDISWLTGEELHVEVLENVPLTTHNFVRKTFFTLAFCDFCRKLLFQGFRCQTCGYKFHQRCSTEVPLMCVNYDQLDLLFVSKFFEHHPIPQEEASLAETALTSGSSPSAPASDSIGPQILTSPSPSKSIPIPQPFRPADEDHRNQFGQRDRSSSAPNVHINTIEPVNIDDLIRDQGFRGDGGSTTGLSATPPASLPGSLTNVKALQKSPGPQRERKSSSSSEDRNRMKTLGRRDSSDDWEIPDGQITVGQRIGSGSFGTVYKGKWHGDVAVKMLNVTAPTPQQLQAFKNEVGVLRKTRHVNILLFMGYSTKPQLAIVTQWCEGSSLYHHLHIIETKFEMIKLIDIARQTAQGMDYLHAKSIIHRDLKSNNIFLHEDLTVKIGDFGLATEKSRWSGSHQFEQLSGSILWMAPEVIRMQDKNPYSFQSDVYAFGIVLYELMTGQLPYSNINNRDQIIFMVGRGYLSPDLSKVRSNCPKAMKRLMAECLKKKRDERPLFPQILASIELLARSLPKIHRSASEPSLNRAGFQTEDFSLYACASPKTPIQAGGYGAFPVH
Procedure: as §1, §2
The scale utilized in Table 4 is as follows: +++ less than 100 nM; and ++ greater than 100 nM.

KDR (VEGFR2) = KDR (VEGFR2) (Homo sapiens (Human), UniProt P35968); assay: Inhibitory activity against kinase KDR, Z'-LYTE method (Invitrogen); assay type: biochemical; conditions: 1 μM compound; read-out: Inhibition (% inhibition at 1 μM) against KDR
Chain of KDR (VEGFR2) (P35968 20-1356): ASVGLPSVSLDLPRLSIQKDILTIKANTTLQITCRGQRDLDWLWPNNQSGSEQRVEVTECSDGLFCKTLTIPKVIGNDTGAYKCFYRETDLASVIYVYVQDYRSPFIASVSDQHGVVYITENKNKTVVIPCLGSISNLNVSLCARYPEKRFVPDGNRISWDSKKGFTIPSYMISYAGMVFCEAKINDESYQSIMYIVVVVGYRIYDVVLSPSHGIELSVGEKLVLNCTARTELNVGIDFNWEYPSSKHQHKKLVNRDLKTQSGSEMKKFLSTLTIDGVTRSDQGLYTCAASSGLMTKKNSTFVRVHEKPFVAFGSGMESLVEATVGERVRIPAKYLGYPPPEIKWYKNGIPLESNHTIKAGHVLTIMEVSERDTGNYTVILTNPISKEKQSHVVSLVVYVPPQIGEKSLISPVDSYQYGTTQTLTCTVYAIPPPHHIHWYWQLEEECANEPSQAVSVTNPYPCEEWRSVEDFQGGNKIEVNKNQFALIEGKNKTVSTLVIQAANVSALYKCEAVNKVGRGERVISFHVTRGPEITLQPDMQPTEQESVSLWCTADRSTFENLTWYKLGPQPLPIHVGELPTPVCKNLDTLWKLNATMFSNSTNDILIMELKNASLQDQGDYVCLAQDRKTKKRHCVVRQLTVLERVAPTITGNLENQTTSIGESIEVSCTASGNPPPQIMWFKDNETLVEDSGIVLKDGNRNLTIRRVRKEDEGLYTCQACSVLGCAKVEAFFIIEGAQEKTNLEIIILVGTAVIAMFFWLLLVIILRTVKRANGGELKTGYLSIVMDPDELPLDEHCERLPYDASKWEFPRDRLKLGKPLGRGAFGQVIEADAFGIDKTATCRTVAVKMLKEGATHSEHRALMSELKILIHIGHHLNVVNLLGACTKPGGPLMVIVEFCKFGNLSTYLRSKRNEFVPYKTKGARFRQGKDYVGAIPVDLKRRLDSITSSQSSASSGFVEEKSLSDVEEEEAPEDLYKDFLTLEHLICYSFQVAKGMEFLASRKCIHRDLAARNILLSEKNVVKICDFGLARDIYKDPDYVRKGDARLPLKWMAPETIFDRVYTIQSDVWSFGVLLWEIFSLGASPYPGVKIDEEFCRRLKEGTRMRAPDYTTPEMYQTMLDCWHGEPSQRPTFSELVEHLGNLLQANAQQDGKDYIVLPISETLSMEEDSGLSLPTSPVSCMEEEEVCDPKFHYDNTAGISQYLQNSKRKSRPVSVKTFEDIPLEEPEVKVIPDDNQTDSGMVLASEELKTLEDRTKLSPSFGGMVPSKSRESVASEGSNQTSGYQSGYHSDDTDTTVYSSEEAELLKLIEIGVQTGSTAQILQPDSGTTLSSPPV
Procedure: Inhibitory activities of compounds against KDR (VEGFR2) were also measured by Invitrogen using Z′-LYTE® Method as described above with the following modification. The 2× KDR (VEGFR2)/Tyr 01 mixture is prepared in 50 mM HEPES pH 7.5, 0.01% BRIJ-35, 10 mM MgCl2, 1 mM EGTA. The final 10 μL Kinase Reaction consists of 0.5-11.7 ng KDR (VEGFR2) and 2 μM Tyr 01 in 50 mM HEPES pH 7.5, 0.01% BRIJ-35, 10 mM MgCl2, 1 mM EGTA. After the 1 hour Kinase Reaction incubation, 5 μL of a 1:256 dilution of Development Reagent B is added.
The scale utilized in Table 5 is as follows: +++ less than 100 nM; and ++ greater than 100 nM

A549 cells = assay: Inhibition of cancer cell growth, MTT or MTS assay, A549; assay type: cell-based; conditions: Homo sapiens, 72 h incubation
Procedure: (§3) Inhibition of cell growth by compounds was measured using MTT or MTS assay. Tumor cell lines were purchased from ATCC (American Type Culture Collection, Manassas, Va.). All cell lines were maintained in RPMI 1640 (Hyclone) supplemented with 10% fetal bovine serum (FBS, Hyclone), glutamine (2 mM, Hyclone), and antibiotics (penicillin 100 U/mL and streptomycin 50 μg/mL) at 37° C. in a humidified atmosphere of 5% CO2 in air. Taxol (as a positive control, Sigma) and compounds were dissolved in DMSO (Sigma), and the final concentration of DMSO in the medium was 1%. Tumor cells were plated in 96-well plates at densities of about 2000 (A375) or 4000 (A549 and Colo205) cells/well of a 96-well plate and allowed to adhere/grow for 24 h. They were then treated with various concentrations of drug and incubated for 72 h. For MTT method, medium was then removed by inverting and tapping the plates. 100 μL of MTT (0.5 mg/ml) was added to each well followed by an incubated at 37° C. for 4 h. MTT was then removed and 200 μL of DMSO was added to each well, and the ODs at 570 nm were measured after a 5 second shaking cycle in a 96-well spectrophotometer. For MTS method, 20 μL MTS (CellTiter 96 Aqueous One Solution, Promega) was added to each well followed by an incubated at 37° C. for 2-4 h, solutions were then directly put in a 96-well spectrophotometer, and the ODs at 490 nm were measured.
(§4) All concentrations of compounds were tested in triplicate and controls were averaged over 4 wells. IC50 was calculated by plotting the concentration of compound vs the percentage of inhibition in treated wells using GraphPad Prism 5. […] The scale utilized in Tables […] is as follows: +++ less than 1000 nM; ++ between 1000 nM and 5000 nM; and + greater than 5000 nM. The scale utilized in Table 8 is as follows: +++ less than 2000 nM; ++ between 2000 nM and 5000 nM; and + greater than 5000 nM.

A375 cells = assay: Inhibition of cancer cell growth, MTT or MTS assay, A375; assay type: cell-based; conditions: Homo sapiens, A-375; 72 h incubation
Procedure: as §3, §4

Chain of BRAF (P15056 whole entry): as the sequence (P15056 whole entry V600E) above, with E600V counted along it

Row | SMILES | inhibition at 1 µM (BRAF) [%] | inhibition at 1 µM (BRAF V600E) [%] | inhibition at 1 µM (KDR (VEGFR2)) [%] | IC50 (A549 cells) [µM] | IC50 (A375 cells) [µM]
1 | O=C(Nc1ccc(Cl)c(F)c1)Nc1ccc(F)c(Oc2ccc3ncc(N4CCNCC4)nc3c2)c1 [Compound C068, 1-(4-chloro-3-fluorophenyl)-3-(4-fluoro-3-((3-(piperazin-1-yl)quinoxalin-6-yl)oxy)phenyl)urea] | > 89 | > 89 | 70 to 89 | < 2 | –
2 | O=C(Nc1ccc(F)c(Cl)c1)Nc1ccc(F)c(Oc2ccc3ncc(N4CCNCC4)nc3c2)c1 [Compound C067, 1-(3-chloro-4-fluorophenyl)-3-(4-fluoro-3-((3-(piperazin-1-yl)quinoxalin-6-yl)oxy)phenyl)urea] | > 89 | > 89 | > 89 | < 2 | –
3 | O=C(Nc1ccc(F)cc1)Nc1cccc(Oc2ccc3ncc(N4CCOCC4)nc3c2)c1 [Compound C043, 1-(4-fluorophenyl)-3-(3-((3-morpholinoquinoxalin-6-yl)oxy)phenyl)urea] | 70 to 89 | > 89 | > 89 | > 5 | –
4 | O=C(Nc1ccc(F)c(C(F)(F)F)c1)Nc1ccc(Oc2ccc3nccnc3c2)cc1F [Compound C098, 1-(4-fluoro-3-(trifluoromethyl)phenyl)-3-(2-fluoro-4-(quinoxalin-6-yloxy)phenyl)urea] | – | 70 to 89 | < 70 | > 5 | 1 to 5
5 | O=C(Nc1cc(F)cc(Oc2ccc3nccnc3c2)c1)c1cccc(C(F)(F)F)c1 [Compound C015, N-(3-fluoro-5-(quinoxalin-6-yloxy)phenyl)-3-(trifluoromethyl)benzamide] | – | > 89 | < 70 | > 5 | > 5
6 | O=C(Nc1ccc(F)c(Oc2ccc3nccnc3c2)c1)c1ccc(Cl)c(C(F)(F)F)c1 [Compound C010, 4-chloro-N-(4-fluoro-3-(quinoxalin-6-yloxy)phenyl)-3-(trifluoromethyl)benzamide] | – | 70 to 89 | 70 to 89 | 2 to 5 | > 5
7 | O=C(Nc1cccc(F)c1)Nc1ccc(F)c(Oc2ccc3nccnc3c2)c1 [Compound C023, 1-(4-fluoro-3-(quinoxalin-6-yloxy)phenyl)-3-(3-fluorophenyl)urea] | – | > 89 | < 70 | 2 to 5 | 1 to 5
8 | O=C(Nc1cccc(C(F)(F)F)c1)Nc1ccc(F)c(Oc2ccc3nccnc3c2)c1 [Compound C024, 1-(4-fluoro-3-(quinoxalin-6-yloxy)phenyl)-3-(3-(trifluoromethyl)phenyl)urea] | – | > 89 | 70 to 89 | < 2 | 1 to 5
9 | O=C(Nc1cc(F)cc(Oc2ccc3ncc(N4CCOCC4)nc3c2)c1)c1ccc(Cl)c(C(F)(F)F)c1 [Compound C029, 4-chloro-N-(3-fluoro-5-((3-morpholinoquinoxalin-6-yl)oxy)phenyl)-3-(trifluoromethyl)benzamide] | – | 70 to 89 | 70 to 89 | 2 to 5 | 1 to 5
10 | O=C(Nc1cccc(F)c1)Nc1cc(F)cc(Oc2ccc3ncc(N4CCOCC4)nc3c2)c1 [Compound C031, 1-(3-fluoro-5-((3-morpholinoquinoxalin-6-yl)oxy)phenyl)-3-(3-fluorophenyl)urea] | – | > 89 | < 70 | > 5 | > 5
11 | O=C(Nc1ccc(F)c(Oc2ccc3ncc(N4CCOCC4)nc3c2)c1)c1cccc(C(F)(F)F)c1 [Compound C026, N-(4-fluoro-3-((3-morpholinoquinoxalin-6-yl)oxy)phenyl)-3-(trifluoromethyl)benzamide] | – | 70 to 89 | > 89 | 2 to 5 | 1 to 5
12 | O=C(Nc1cc(F)cc(Oc2ccc3ncc(N4CCOCC4)nc3c2)c1)c1cccc(F)c1 [Compound C027, 3-fluoro-N-(3-fluoro-5-((3-morpholinoquinoxalin-6-yl)oxy)phenyl)benzamide] | – | 70 to 89 | 70 to 89 | > 5 | 1 to 5
